SMILES strings stand for the structures.

T1 sequence (P13569 with tags, fused parts or gaps DEL508-508): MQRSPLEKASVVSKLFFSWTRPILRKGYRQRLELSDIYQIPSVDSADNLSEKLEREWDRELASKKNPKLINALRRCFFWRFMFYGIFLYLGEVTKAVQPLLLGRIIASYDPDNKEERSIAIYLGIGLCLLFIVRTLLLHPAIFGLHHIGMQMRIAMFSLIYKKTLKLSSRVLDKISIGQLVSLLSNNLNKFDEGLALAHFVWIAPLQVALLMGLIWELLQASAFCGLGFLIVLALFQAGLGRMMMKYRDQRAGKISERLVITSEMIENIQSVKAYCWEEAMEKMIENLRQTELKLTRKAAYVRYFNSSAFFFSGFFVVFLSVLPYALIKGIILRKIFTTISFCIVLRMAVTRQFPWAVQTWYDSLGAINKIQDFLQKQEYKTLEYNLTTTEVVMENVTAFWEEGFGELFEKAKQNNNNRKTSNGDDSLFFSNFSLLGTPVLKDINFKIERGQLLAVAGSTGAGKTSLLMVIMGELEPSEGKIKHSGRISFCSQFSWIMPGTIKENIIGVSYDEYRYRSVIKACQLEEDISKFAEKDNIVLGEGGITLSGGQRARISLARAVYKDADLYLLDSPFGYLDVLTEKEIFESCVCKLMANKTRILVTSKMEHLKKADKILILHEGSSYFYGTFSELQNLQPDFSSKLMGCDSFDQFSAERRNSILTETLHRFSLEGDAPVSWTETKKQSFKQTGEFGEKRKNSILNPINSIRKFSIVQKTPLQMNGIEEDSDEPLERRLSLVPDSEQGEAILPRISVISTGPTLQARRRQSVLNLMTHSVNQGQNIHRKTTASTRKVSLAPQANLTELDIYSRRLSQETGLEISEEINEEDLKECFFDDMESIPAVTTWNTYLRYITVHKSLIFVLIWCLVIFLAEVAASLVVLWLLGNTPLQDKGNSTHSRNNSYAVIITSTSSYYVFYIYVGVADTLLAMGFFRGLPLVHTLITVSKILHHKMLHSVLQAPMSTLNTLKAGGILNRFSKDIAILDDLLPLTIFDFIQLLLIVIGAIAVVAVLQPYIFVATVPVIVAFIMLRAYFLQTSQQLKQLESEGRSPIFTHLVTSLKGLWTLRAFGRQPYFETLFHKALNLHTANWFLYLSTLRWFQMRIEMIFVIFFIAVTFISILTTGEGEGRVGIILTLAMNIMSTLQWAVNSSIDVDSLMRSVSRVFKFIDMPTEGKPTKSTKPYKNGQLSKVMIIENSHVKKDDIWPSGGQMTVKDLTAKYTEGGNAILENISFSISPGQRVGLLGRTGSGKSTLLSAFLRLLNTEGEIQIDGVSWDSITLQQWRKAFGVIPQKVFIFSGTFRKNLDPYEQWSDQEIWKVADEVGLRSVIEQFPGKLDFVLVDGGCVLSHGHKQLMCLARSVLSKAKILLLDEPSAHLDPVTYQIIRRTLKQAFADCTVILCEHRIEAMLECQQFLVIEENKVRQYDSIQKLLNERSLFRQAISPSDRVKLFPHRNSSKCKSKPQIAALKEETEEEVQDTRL

The test addresses T1, F508del (Homo sapiens, UniProt P13569, DEL508-508).
T1 construct: expressed in transfected cells
Put plainly: Protocol 1: membrane potential optical assay (FLIPR III, voltage sensing dye), identification of potentiator compounds. In kind it is cell-based. To be noted: Table 3, compounds of Table 1. The method, boiled down:
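NIH 3T3 fibroblasts stably expressing F508del were cultured at 27° C for 24 hrs for temperature correction, then treated with compounds or DMSO and loaded with a voltage-sensing redistribution dye. Forskolin added with a Cl⁻ gradient activated the channel; membrane-potential fluorescence on FLIPR III reported increased gating.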
Take `C[C@@H]1CN(c2nc(-c3ccc(C(F)(F)F)cc3)ccc2C(=O)NS(=O)(=O)N2CC[C@H](N)C2)C(C)(C)C1` [Compound 1900, N-[(3S)-3-aminopyrrolidin-1-yl]sulfonyl-6-[4-(trifluoromethyl)phenyl]-2-[(4S)-2,2,4-trimethylpyrrolidin-1-yl]pyridine-3-carboxamide]: the EC30 entry is “++ (“++” means between 3 uM and 10 uM)”.
With `Cc1ccc(-c2nc(C(C)(C)C)ccc2C(=O)NS(=O)(=O)c2cccc(O)c2)cc1` [Compound 1265, 6-tert-butyl-N-(3-hydroxyphenyl)sulfonyl-2-(p-tolyl)pyridine-3-carboxamide], the EC30 entry was “++ (“++” means between 3 uM and 10 uM)”.
Then `C[C@@H]1CN(c2nc(C3CC(C)(C)CCC3O)ccc2C(=O)NS(=O)(=O)c2cccc(N)n2)C(C)(C)C1` (stereo partly drawn) [Compound 1439, N-[(6-amino-2-pyridyl)sulfonyl]-6-(2-hydroxy-5,5-dimethyl-cyclohexyl)-2-[(4S)-2,2,4-trimethylpyrrolidin-1-yl]pyridine-3-carboxamide], with “++ (“++” means between 3 uM and 10 uM)”; and `COc1cccc(-c2ccc(C(=O)NS(=O)(=O)c3ccn[nH]3)c(N3[C@H](C)CC[C@@H]3C)n2)n1` [Compound 1236, 2-[(2S,5R)-2,5-dimethylpyrrolidin-1-yl]-6-(6-methoxy-2-pyridyl)-N-(1H-pyrazol-5-ylsulfonyl)pyridine-3-carboxamide], with “++ (“++” means between 3 uM and 10 uM)”; and `CCOc1cccc(-c2ccc(C(=O)NS(=O)(=O)c3cccnc3N)c(N3C[C@@H](C)CC3(C)C)n2)c1` [Compound 1822, N-[(2-amino-3-pyridyl)sulfonyl]-6-(3-ethoxyphenyl)-2-[(4S)-2,2,4-trimethylpyrrolidin-1-yl]pyridine-3-carboxamide], with “+++ (“+++” means <3 uM)”.
With `CCOc1ccc(Oc2cccc(S(=O)(=O)NC(=O)c3cccnc3N3CC(C)CC3(C)C)n2)cc1` (stereo not drawn) [Compound 1924, N—[[6-(4-ethoxyphenoxy)-2-pyridyl]sulfonyl]-2-(2,2,4-trimethylpyrrolidin-1-yl)pyridine-3-carboxamide], the EC30 result is “+++ (“+++” means <3 uM)”.
Then `C[C@@H]1CN(c2ncc(C(F)(F)F)cc2C(=O)NS(=O)(=O)c2cccc(N)n2)C(C)(C)C1` [Compound 1550, N-[(6-amino-2-pyridyl)sulfonyl]-5-(trifluoromethyl)-2-[(4S)-2,2,4-trimethylpyrrolidin-1-yl]pyridine-3-carboxamide], with “++ (“++” means between 3 uM and 10 uM)”; and `Cc1nccc(-c2cccc(S(=O)(=O)NC(=O)c3cc(C(C)(C)C)nn3Cc3c(C)cccc3C)c2)n1` [Compound 1496, 5-tert-butyl-2-[(2,6-dimethylphenyl)methyl]-N-[3-(2-methylpyrimidin-4-yl)phenyl]sulfonyl-pyrazole-3-carboxamide], with “+++ (“+++” means <3 uM)”; and `COc1cccc(COc2cccc(S(=O)(=O)NC(=O)c3cccnc3N3CC(C)CC3(C)C)n2)c1` (stereo not drawn) [Compound 1972, N—[[6-[(3-methoxyphenyl)methoxy]-2-pyridyl]sulfonyl]-2-(2,2,4-trimethylpyrrolidin-1-yl)pyridine-3-carboxamide], with “+++ (“+++” means <3 uM)”.
Take `Cc1cc(C)c(Oc2nc(-c3cc(F)ccc3F)ccc2C(=O)NS(=O)(=O)c2cccc(N)n2)c(C)c1` [Compound 803, N-[(6-amino-2-pyridyl)sulfonyl]-6-(2,5-difluorophenyl)-2-(2,4,6-trimethylphenoxy)pyridine-3-carboxamide]: the EC30 result is “+++ (“+++” means <3 uM)”.
Next, `CC(C)COc1cc(F)cc(-c2ccc(C(=O)NS(=O)(=O)c3cccc(N)n3)c(OC(C)c3cccnc3)n2)c1` (stereo not drawn) [Compound 1434, N-[(6-amino-2-pyridyl)sulfonyl]-6-(3-fluoro-5-isobutoxy-phenyl)-2-[1-(3-pyridyl)ethoxy]pyridine-3-carboxamide]: “+++ (“+++” means <3 uM)”; `CCOc1ccc(-c2ccc(C(=O)NS(=O)(=O)c3ccc[nH]c3=O)c(Oc3c(C)cc(C)cc3C)n2)cn1` [Compound 932, 6-(6-ethoxy-3-pyridyl)-N-[(2-oxo-1H-pyridin-3-yl)sulfonyl]-2-(2,4,6-trimethylphenoxy)pyridine-3-carboxamide]: “+ (“+” means greater than 10 uM)”.
With `CC(C)COc1cc(F)cc(-c2ccc(C(=O)NS(=O)(=O)c3cccc(N)n3)c(OC3CC(OCc4ccccc4)C3)n2)c1` (stereo not drawn) [Compound 1559, N-[(6-amino-2-pyridyl)sulfonyl]-2-(3-benzyloxycyclobutoxy)-6-(3-fluoro-5-isobutoxy-phenyl)pyridine-3-carboxamide], the EC30 result is recorded as “+++ (“+++” means <3 uM)”.
Consider `CC(C)Oc1ccc(-c2ccc(C(=O)NS(=O)(=O)c3cccnc3N)c(N3C[C@@H](C)CC3(C)C)n2)cn1` [Compound 1660, N-[(2-amino-3-pyridyl)sulfonyl]-6-(6-isopropoxy-3-pyridyl)-2-[(4S)-2,2,4-trimethylpyrrolidin-1-yl]pyridine-3-carboxamide], for which the EC30 result is “+++ (“+++” means <3 uM)”.
In the case of `CC1CN(c2ncccc2C(=O)NS(=O)(=O)c2cccc(OCC3CCC=CO3)n2)C(C)(C)C1` (stereo not drawn) [Compound 1874, N—[[6-(3,4-dihydro-2H-pyran-2-ylmethoxy)-2-pyridyl]sulfonyl]-2-(2,2,4-trimethylpyrrolidin-1-yl)pyridine-3-carboxamide], the EC30 result is “+++ (“+++” means <3 uM)”.
`CC(=O)C1CC=C(c2ccc(C(=O)NS(=O)(=O)c3cccc(N)n3)c(Oc3c(C)cc(C)cc3C)n2)CC1` (stereo not drawn) [Compound 1615, 6-(4-acetylcyclohexen-1-yl)-N-[(6-amino-2-pyridyl)sulfonyl]-2-(2,4,6-trimethylphenoxy)pyridine-3-carboxamide]: the EC30 result is reported as “+++ (“+++” means <3 uM)”.
Next, `CC1CN(c2nc(C(C)(C)C)c(C3=CCOCC3)cc2C(=O)NS(=O)(=O)c2cccc(N)n2)C(C)(C)C1` (stereo not drawn) [Compound 1495, N-[(6-amino-2-pyridyl)sulfonyl]-6-tert-butyl-5-(3,6-dihydro-2H-pyran-4-yl)-2-(2,2,4-trimethylpyrrolidin-1-yl)pyridine-3-carboxamide]: “+++ (“+++” means <3 uM)”; `CC(C)COc1cc(F)cc(-c2ccc(C(=O)NS(=O)(=O)c3ccn[nH]3)c(N3CCC(c4ccccc4)CC3)n2)c1` [Compound 1315, 6-(3-fluoro-5-isobutoxy-phenyl)-2-(4-phenyl-1-piperidyl)-N-(1H-pyrazol-5-ylsulfonyl)pyridine-3-carboxamide]: “+++ (“+++” means <3 uM)”.
Next, `Cc1nc(N(C)CC(C)C)ccc1-c1ccc(C(=O)NS(=O)(=O)c2cccc(N)n2)c(N2CC(C)CC2(C)C)n1` (stereo not drawn) [Compound 827, N-[(6-amino-2-pyridyl)sulfonyl]-6-[6-[isobutyl(methyl)amino]-2-methyl-3-pyridyl]-2-(2,2,4-trimethylpyrrolidin-1-yl)pyridine-3-carboxamide]: “+++ (“+++” means <3 uM)”; `Cc1ccc(C)c(-c2ccc(C(=O)NS(=O)(=O)c3ccc[nH]c3=O)c(N3C[C@@H](C)CC3(C)C)n2)c1` [Compound 1990, 6-(2,5-dimethylphenyl)-N-[(2-oxo-1H-pyridin-3-yl)sulfonyl]-2-[(4S)-2,2,4-trimethylpyrrolidin-1-yl]pyridine-3-carboxamide]: “+++ (“+++” means <3 uM)”.
Next, `Cc1cc(C)c(Oc2nc(OC(C)C)ccc2C(=O)NS(=O)(=O)c2cccc(N)n2)c(C)c1` [Compound 968, N-[(6-amino-2-pyridyl)sulfonyl]-6-isopropoxy-2-(2,4,6-trimethylphenoxy)pyridine-3-carboxamide]: “+++ (“+++” means <3 uM)”.
As to `C[C@@H]1CC[C@H](C)N1c1nc(-c2ccc(F)cc2)ccc1C(=O)NS(=O)(=O)c1cccc(N)n1` [Compound 1029, N-[(6-amino-2-pyridyl)sulfonyl]-2-[(2S,5R)-2,5-dimethylpyrrolidin-1-yl]-6-(4-fluorophenyl)pyridine-3-carboxamide], the EC30 entry was “++ (“++” means between 3 uM and 10 uM)”.
Then `C[C@@H]1CN(c2nc(-c3cccc(CO)c3)ccc2C(=O)NS(=O)(=O)c2cccnc2N)C(C)(C)C1` [Compound 1738, N-[(2-amino-3-pyridyl)sulfonyl]-6-[3-(hydroxymethyl)phenyl]-2-[(4S)-2,2,4-trimethylpyrrolidin-1-yl]pyridine-3-carboxamide], with “+++ (“+++” means <3 uM)”.
For the compound `CC(C)=Cc1cc(C(=O)NS(=O)(=O)c2cccc(N)n2)c(N2CC(C)CC2(C)C)nc1C(C)(C)C` (stereo not drawn) [Compound 1561, N-[(6-amino-2-pyridyl)sulfonyl]-6-tert-butyl-5-(2-methylprop-1-enyl)-2-(2,2,4-trimethylpyrrolidin-1-yl)pyridine-3-carboxamide], the EC30 entry is on record as “+++ (“+++” means <3 uM)”.
With `CC1CN(c2nc(OC(C)C(C)C)c(F)cc2C(=O)NS(=O)(=O)c2cccc(N)n2)C(C)(C)C1` (stereo not drawn) [Compound 1810, N-[(6-amino-2-pyridyl)sulfonyl]-6-(1,2-dimethylpropoxy)-5-fluoro-2-(2,2,4-trimethylpyrrolidin-1-yl)pyridine-3-carboxamide], the EC30 result is listed as “+++ (“+++” means <3 uM)”.
With `CCOc1cccc2c1CN(Cc1c(C)cc(C)cc1C)C2(C)C(=O)NS(=O)(=O)c1nccs1` (stereo not drawn) [Compound 1546, 4-ethoxy-1-methyl-N-thiazol-2-ylsulfonyl-2-[(2,4,6-trimethylphenyl)methyl]isoindoline-1-carboxamide], the EC30 entry was “+++ (“+++” means <3 uM)”.
`Cc1ccc(-c2ccc(C(=O)NS(=O)(=O)c3cccc(N)n3)c(NCC3(C)CCOCC3)n2)cc1` [Compound 1196, N-[(6-amino-2-pyridyl)sulfonyl]-2-[(4-methyltetrahydropyran-4-yl)methylamino]-6-(p-tolyl)pyridine-3-carboxamide]: the EC30 entry is “++ (“++” means between 3 uM and 10 uM)”.

Values taken from patent publication US10758534B2 (Vertex Pharmaceuticals Incorporated, priority 2014, dated 2020).
